Data on one molecule can be found in article PMC8001472, “Novel Selective IDO1 Inhibitors with Isoxazolo[5,4-d]pyrimidin-4(5H)-one Scaffold” (Pharmaceuticals, 2021).

The test system of one data set is Hep G2 cell line. Briefly: Cytotoxicity, MTS cell proliferation assay. In kind it is cell-based. To be noted: Hep G2 cells. How it is done:
All active compounds were additionally evaluated on a cellular level, starting with the determination of cytotoxicity on Hep G2 cell line using the MTS assay (Figure 3), where inner salt of [3-(4,5-dimethylthiazol-2-yl)-5-(3-carboxymethoxyphenyl)-2-(4-sulfophenyl)-2H-tetrazolium is converted to formazan product, its quantity is directly proportional to the number of living cells. Since the majority of compounds were only partially soluble in a cell medium at concentrations above 100 μM, their effect on cell viability was measured at 50 μM, 10 μM, and 1 μM. […] Taken together, the results obtained from cellular tests reminded us of the necessity to consider the physicochemical properties of compounds even at the early stages of design.
Cytotoxicity of the compounds was determined on HepG2 cell line using the MTS cell proliferation assay (CellTiter 96 AQueous One Solution Cell Proliferation Assay, Promega, Madison, WI, USA). The cells were seeded in 96-well plates (3 × 10^4 cells/well) and maintained in Dulbecco’s Modified Eagle’s Medium, supplemented with 10% fetal bovine serum (both from Thermo Fisher Scientific, Waltham, MA, USA) and 100 µg/mL gentamicin (Sigma-Aldrich, St. Louis, MO, USA). Following overnight incubation in a humidified chamber at 37 °C and 5% CO2 cells were treated with the compounds of interest at final concentrations of 1 µM, 10 µM, 50 µM, 100 µM, 150 µM, and 200 µM. After 24h incubation under the same conditions, 100 µL of the medium from each well were collected and mixed with 10 µL of MTS solution. Following 3h incubation, the absorbance (λABS = 490 nm) was measured using a microplate reader (Synergy H4; BioTek Instruments, Inc., Winooski, VT, USA). The results are expressed as means of triplicates ± standard deviation of three independent experiments.
(Tetrazolium assays rely on reduction of a dye to a coloured formazan, in cell work by metabolically active cells.)

The target in another data set is T1, hIDO2 (Homo sapiens, UniProt Q6ZQW0).
T1 construct: purchased Vinci-Biochem
T1 sequence (Q6ZQW0 1-407): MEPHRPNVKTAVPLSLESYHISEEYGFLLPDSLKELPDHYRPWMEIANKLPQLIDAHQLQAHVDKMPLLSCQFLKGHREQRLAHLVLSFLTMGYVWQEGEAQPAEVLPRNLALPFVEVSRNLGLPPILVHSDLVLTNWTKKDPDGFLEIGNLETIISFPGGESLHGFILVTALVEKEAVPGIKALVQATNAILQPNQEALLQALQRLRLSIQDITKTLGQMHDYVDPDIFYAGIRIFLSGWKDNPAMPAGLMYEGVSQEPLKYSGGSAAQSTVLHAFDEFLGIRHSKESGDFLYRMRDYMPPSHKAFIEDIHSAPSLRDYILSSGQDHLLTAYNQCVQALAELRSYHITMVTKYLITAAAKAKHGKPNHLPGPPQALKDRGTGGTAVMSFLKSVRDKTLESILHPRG
Briefly: hIDO2 inhibitory potency evaluation (fluorescence assay). Type of data set: biochemical. The procedure:
Additionally, to determine IDO1 selectivity, all final compounds were assayed for their inhibitory potencies towards hIDO2 and hTDO. For this purpose, two new protocols were developed based on the published fluorescence assay for hIDO1 [25]. Sodium ascorbate, methylene blue, and bovine catalase were used in the same concentrations as for hIDO1. 50 mM phosphate buffers with pH values of 7.5 and 7.0 were used for hIDO2 and hTDO, respectively, as has been already mentioned before. First, the activities of hIDO2 and hTDO were determined at four different concentrations. […] Additionally, the effect of DMSO concentration on enzyme activity was investigated. […] The optimal hIDO2 and hTDO assay concentrations of the substrate L-Trp were determined to be 4 mM and 500 μM, respectively.
Activity of the compounds on hIDO2 was determined according to the previously reported fluorescence protocol for hIDO1 [25] and reported absorbance protocols for hIDO2 [30, 36] with several modifications. Recombinant hIDO2 was purchased from Vinci-Biochem (Vinci-Biochem, Srl, Vinci, Italy), bovine catalase was purchased from Sigma-Aldrich (Sigma-Aldrich, St. Louis, MO, USA). Prior to the measurement of activity for compounds, the enzyme activity was determined and optimal assay enzyme concentration was selected. The amounts of reagents needed to perform the assay were optimized. Briefly, the reagents needed were dissolved in 50 mM potassium phosphate buffer (pH 7.5, 0.01%, v/v Tween 20), the reaction was performed in black 384-well microplates. After the addition of 1 μL of 100 mM sodium ascorbate neutralized with an equimolar amount of 1M NaOH, 1 μL of 100 μM methylene blue, 1 μL of 1 mg/mL bovine catalase, 0.5 μL of DMSO (negative control) or solution of a compound in DMSO, 5 μL of […] hIDO2 and 1.5 μL of 26.7 mM L-Trp were added and the microplate was incubated for 60 min at 37 °C. The reaction was quenched with the addition of 10 μL of 400 mM piperidine solution in MilliQ water and the formation of the examined fluorophore began following incubation at 65 °C for 20 min. The production of NFK-derived fluorophore (λEX = 400 nm, λEM = 500 nm) was measured using a microplate reader (Synergy H4; BioTek Instruments, Inc., Winooski, VT, USA) after 60 min post-incubation at room temperature. In the preliminary testing compounds were tested at 100 μM with activities determined as residual activities—RA, which were calculated to% of inhibition, presented in Table 1 and Table 2. (% of inhibition = 100% − RA). All determinations were carried out in duplicates.

With `O=C(Cn1cnc2onc(-c3ccc(F)cc3)c2c1=O)Nc1ccc(C(F)(F)F)cc1` [Compound 23], the cytotoxicity profile result in the data set on Hep G2 cell line is reported as “satisfying cytotoxicity profile”. Moreover, on hIDO2, the “hIDO2 inhibition (in words)” value is listed as “no activity”.
